In paper PMC5334708, “Mosquitocidal Activity and Mode of Action of the Isoxazoline Fluralaner” (International Journal of Environmental Research and Public …, 2017):

What was measured:
[1] = biological target: T1, mammalian GABAA α1β3γ2 receptor (Homo sapiens, UniProt P14867+P18507+P28472); assay: whole-cell planar patch clamp, block of GABA EC80 current in transfected HEK293 cells (antagonist positive control); type: cell-based
T1 construct: gene GABRA1; with GABRB3 (β3) and GABRG2 (γ2) subunits
T1 sequence (P14867 28-456): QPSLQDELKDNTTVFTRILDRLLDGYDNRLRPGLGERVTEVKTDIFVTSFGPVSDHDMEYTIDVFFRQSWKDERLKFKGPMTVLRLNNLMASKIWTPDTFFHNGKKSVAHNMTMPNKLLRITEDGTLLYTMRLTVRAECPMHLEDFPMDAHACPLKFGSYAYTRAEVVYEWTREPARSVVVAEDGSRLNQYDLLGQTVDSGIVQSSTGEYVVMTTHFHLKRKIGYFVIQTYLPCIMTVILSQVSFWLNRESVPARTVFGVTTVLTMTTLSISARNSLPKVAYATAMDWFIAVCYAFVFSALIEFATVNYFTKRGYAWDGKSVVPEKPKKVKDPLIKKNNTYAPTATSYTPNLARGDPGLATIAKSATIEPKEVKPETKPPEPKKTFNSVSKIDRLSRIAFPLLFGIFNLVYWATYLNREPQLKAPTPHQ
T1 sequence (P28472 26-473): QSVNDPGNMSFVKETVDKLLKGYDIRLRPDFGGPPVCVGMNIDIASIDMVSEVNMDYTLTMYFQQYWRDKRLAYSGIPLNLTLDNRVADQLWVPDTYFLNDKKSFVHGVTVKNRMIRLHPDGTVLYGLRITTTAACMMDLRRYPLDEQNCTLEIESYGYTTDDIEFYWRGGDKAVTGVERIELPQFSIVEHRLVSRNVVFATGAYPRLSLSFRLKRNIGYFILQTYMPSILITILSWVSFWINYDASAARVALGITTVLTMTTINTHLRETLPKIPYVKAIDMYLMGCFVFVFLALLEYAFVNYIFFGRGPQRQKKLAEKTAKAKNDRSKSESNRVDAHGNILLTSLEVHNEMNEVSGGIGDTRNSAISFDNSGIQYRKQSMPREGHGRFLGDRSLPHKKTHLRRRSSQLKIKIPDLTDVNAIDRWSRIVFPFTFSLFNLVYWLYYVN
T1 sequence (P18507 40-475): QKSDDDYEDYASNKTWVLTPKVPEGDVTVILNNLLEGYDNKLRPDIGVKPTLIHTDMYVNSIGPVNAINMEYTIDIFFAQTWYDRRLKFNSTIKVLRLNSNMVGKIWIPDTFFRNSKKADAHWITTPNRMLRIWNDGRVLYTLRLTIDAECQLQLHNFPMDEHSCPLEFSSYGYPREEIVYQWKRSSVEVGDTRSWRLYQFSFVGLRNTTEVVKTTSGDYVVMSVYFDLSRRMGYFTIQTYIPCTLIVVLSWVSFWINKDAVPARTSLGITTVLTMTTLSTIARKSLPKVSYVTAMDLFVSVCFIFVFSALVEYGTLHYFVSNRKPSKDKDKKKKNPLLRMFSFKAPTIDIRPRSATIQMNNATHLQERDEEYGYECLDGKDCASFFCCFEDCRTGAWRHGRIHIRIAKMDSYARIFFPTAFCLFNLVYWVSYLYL

[2] = biological target: T1, mammalian GABAA α1β3γ2 receptor; assay: whole-cell planar patch clamp, block of GABA EC80 current in transfected HEK293 cells; type: cell-based

C=C(C)[C@@H]1[C@H]2OC(=O)[C@@H]1[C@]1(O)C[C@H]3OC34C(=O)O[C@H]2[C@@]41C.CC(C)(O)[C@@H]1[C@H]2OC(=O)[C@@H]1[C@]1(O)C[C@H]3OC34C(=O)O[C@H]2[C@@]41C (some centres unmarked) [picrotoxin]
IC50 [1]: 3.9 µM

N#Cc1nn(-c2c(Cl)cc(C(F)(F)F)cc2Cl)c(N)c1[S+]([O-])C(F)(F)F (centres unmarked) [fipronil]
IC50 [2]: 4.9 µM
